The log P is a log measure of how a compound divides between an organic and an aqueous phase. Low values mean a more hydrophilic compound, high ones a more lipophilic compound.

The target of data set [1] is T1, BChE (Mus musculus, UniProt Q03311).
Protocol: Biodistribution studies were also conducted on 3, another BChE-binding derivative, in AD mouse and in normal controls. This study of 3 was conducted in >12-months old AD mice and matching control mice. All mice received IV 10 μCi of 3. Mice were killed 48 hours later. Tissues were collected and their radioactive content determined in a γ counter. One-half of each brain was fixed. The radioactivity in the other half was counted in a γ counter.
Data set [2] addresses T1, BChE. Particulars: IV 0.5 mCi, 48 hours.
Protocol: FIG. 7 provides images of microautoradiography of brain sections of AD mouse treated with IV dose of 0.5 mCi 3. Mouse was killed 48 hours after the administration of 3. Counterstained H&E; 10×.
FIG. 8 provides a microautoradiography of brain sections of the matching control mouse also treated with IV doses of 0.5 mCi 3. Mouse was killed 48 hours after the administration of 3. Counterstained H&E; 10×.
FIG. 9 provides an image of a section of brain from control mouse treated with 3 48 hours before necropsy. 100×; H&E.
FIG. 10 provides images of brain sections from AD mouse 48 hours after IV dose of 0.5 mCi 3. […] FIG. 10D: Cross-section of a blood vessel containing red blood cells surrounded by silver grains corresponding to circulating 3.
FIG. 8 is the corresponding section of a brain from a matched control mouse treated in the same manner. […] Imperfections in focus are because brain sections and silver grains are in different planes, tissue section vs. emulsion.
Another data set concerns the target AChE (Bos taurus, UniProt P23795). The following applies: SDS-PAGE autoradiogram. The procedure: Lanes 1, 2: BChE-containing mouse serum incubated with 2a in (1) PBS+DMSO; (2) PBS+0.1% Triton X100+DMSO. Lanes 3-5: AChE-only containing bovine serum incubated with 2a in (3) DMSO; (4) PBS+DMSO; (5) PBS+0.1% Triton X-100+DMSO.
Data set [3] concerns the target T1, BChE. Particulars: for activity in head of AD mouse, planar image: 1 hour after tail vein IV 0.5 mCi. The procedure: Two sets of preliminary biodistribution studies were conducted: (1) in normal athymic mice to determine general biodistribution and the brain uptake; and (2) in at least ˜7-14 months old APPswe mice (strain B6C3-Tg(APPswe,PSEN1dE9)85 Dbo/J; abbreviated as AD mice in the text below). JAX® GEMM® Strain wildtype mice from the colony were used as the control. B6C3-Tg(APPswe,PSEN1dE9) 85 Dbo/J is a double transgenic mice expressing chimeric mouse/human amyloid precursor protein(Mo/Hu APP695swe) and a mutant human presenilin 1(PS1-dE9) both directed to CNS neurons. Both mutations are associated with the early onset AD. Aβ plaques are produced in these mice in hippocampus and cortex by 9 months of age with the occasional deposits found in mice as young as 6 months of age (Jankowsky et al. (2004) Hum. Mol. Genet., 13:159-70; Garcia-Alloza et al. (2006) Neurobiol. Dis., 24:516-524). Planar imaging was done using a pinhole gamma camera. […] In both images mice are positioned with the dorsal surface of the mouse facing the pinhole collimator. […] There were 6 mice per each time point.

Data set [4] can be described thus: Solubility in water, buffers and physiologically appropriate solvents.
A short description of data set [5]: Partition coefficient, shake-tube method, 1-octanol and water. It is filed as physicochemical. The following applies: 1-octanol/water; for Partition coefficient P avg (std dev): 19° C., 125I-labeled pure diastereomers. The source says:
In order to reach intracerebral targets, drugs developed for diagnosis of the AD must be able to cross two barriers separating the central nervous system (CNS) from the periphery (Hansch et al. (1987) J. Pharm. Sci., 76:663-87.), the blood-brain barrier and the blood-cerebrospinal fluid barrier. Therefore the preliminary evaluation of the new drugs included partition coefficients. CNS agents that are highly lipid soluble with the log octanol-water partition coefficient between 1 and 3 have the equilibration half-times that are proportional to brain solubility (Atkinson et al. (2002) Curr. Med. Chem., 2:229-40; Dutta et al. (1998) Br. J. Anaesth., 81:422-4; Buchwald et al. (1998) Curr. Med. Chem., 5:353-80). Only pure SP and RP diastereomers were used. Ten μCi of each ^125I-labeled compound was added to 3 mL of water, the mixture was vortexed and 1-mL aliquots were transferred into fresh tubes. To each tube 1 mL of 1-octanol was added and the mixtures were vigorously vortexed until a homogenous suspension formed. At this point, the organic and water layers were separated by centrifugation at 19° C. Aliquots of each phase were gently removed and counted in a gamma counter in a triplicate. Typically, each KP was calculated as an average of n≧18.

The structures appear in SMILES notation.

T1 sequence (Q03311 30-603): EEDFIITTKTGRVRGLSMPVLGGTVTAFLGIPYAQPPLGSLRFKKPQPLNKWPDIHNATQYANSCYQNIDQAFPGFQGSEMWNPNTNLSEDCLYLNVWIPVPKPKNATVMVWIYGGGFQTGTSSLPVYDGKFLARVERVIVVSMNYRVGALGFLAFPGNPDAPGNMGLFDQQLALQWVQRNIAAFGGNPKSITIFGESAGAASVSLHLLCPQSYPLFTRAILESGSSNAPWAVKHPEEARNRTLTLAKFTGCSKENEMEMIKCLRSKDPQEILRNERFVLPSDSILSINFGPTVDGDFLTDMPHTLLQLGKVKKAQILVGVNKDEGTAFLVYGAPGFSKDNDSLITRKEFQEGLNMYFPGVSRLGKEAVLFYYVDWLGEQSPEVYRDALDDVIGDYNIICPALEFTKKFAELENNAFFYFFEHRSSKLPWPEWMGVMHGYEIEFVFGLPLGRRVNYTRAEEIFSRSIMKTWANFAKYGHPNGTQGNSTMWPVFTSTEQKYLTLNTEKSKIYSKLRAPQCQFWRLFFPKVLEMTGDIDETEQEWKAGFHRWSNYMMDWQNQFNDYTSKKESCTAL
Chain of AChE (P23795 31-613): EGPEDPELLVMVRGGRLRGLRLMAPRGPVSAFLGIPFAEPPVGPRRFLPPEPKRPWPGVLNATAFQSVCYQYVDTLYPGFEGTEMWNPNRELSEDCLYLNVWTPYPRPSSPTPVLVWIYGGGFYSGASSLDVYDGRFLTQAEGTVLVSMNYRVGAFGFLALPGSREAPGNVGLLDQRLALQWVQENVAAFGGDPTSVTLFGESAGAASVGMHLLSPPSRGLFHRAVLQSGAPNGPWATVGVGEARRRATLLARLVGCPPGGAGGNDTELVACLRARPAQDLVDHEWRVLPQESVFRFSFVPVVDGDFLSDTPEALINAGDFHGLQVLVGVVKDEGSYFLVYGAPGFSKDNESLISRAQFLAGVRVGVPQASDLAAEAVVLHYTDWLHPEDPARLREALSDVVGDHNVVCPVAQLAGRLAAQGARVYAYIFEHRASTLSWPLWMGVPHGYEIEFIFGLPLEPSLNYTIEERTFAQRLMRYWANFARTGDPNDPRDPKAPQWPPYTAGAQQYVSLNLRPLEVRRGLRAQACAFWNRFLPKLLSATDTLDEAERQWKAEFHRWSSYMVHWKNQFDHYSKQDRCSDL

Regarding `O=c1[nH]c(=O)n(C2CC(O)C(COP3(=O)OCc4ccccc4O3)O2)cc1[125I]` (mixture of isomers) [Compound 3], the “brain uptake AD mice compared to wildtype controls” value at BChE [1] (48 hours after IV) was roughly 3 times. In addition, on BChE [1] (>12-months old AD mice, IV 10 μCi, 48 hours), the “brain uptake in AD mice” value was 0.085±0.008 % ID/g. The “brain uptake in matching wildtype controls” value on BChE [1] (control mice, IV 10 μCi, 48 hours) came to 0.030±0.011 % ID/g. The “clusters of radioactivity in brain of AD mice” value on BChE [2] (AD mouse) is given as “large clusters of radioactivity”. The “clusters of radioactivity in brains of control mice” value at BChE [2] (control mouse) was “practically absent”.

In the case of `CC(C)(C)c1cc(C(C)(C)C)c2c(c1F)COP(=O)(OCC1OC(n3cc([125I])c(=O)[nH]c3=O)CC1O)O2` (stereo not drawn) [Compound 2a], the “binding to bovine serum (AChE, no BChE)” value on AChE is “complete absence”. Moreover, on BChE [3], the “activity in head of AD mouse, planar image” value is given as “accumulation of 2a in the head of the AD mouse”. Further, at BChE [3] (AD mice, IV, all time points, 6 mice per time point), the “percent injected dose per gram brain, 2a versus 2b” value is “significantly higher”. Besides, in data set [4], the “solubility in buffers and other physiologically appropriate solvents” value was “low”.

Take `CC(C)(C)c1cc(C(C)(C)C)c2c(c1F)COP(=O)(OCC1OC(n3cc([125I])c(=O)[nH]c3=O)CC1O)O2` (stereo not drawn) [Compound 2b]: on BChE [3], the “activity in head of AD mouse, planar image” value is “only the background level of activity”.

Regarding `O=c1[nH]c(=O)n(C2CC(O)C(COP3(=O)OCc4ccccc4O3)O2)cc1[125I]` (stereo not drawn) [Compound 3a], in data set [5], the “log P” value worked out at 0.623 and the “Partition coefficient P avg (std dev)” value is recorded as 4.19 (0.12).

In the case of `O=c1[nH]c(=O)n(C2CC(O)C(COP3(=O)OCc4ccccc4O3)O2)cc1[125I]` (stereo not drawn) [Compound 3b], in data set [5], the “log P” value is 0.652 and the “Partition coefficient P avg (std dev)” value is recorded as 4.49 (0.25).

For `Cc1cccc2c1OP(=O)(OCC1OC(n3cc([125I])c(=O)[nH]c3=O)CC1O)OC2` (stereo not drawn) [Compound 4a], in data set [5], the “log P” value is reported as 0.857 and the “Partition coefficient P avg (std dev)” value is 7.19 (0.37).

`Cc1cccc2c1OP(=O)(OCC1OC(n3cc([125I])c(=O)[nH]c3=O)CC1O)OC2` (stereo not drawn) [Compound 4b]: in data set [5], the “log P” value is 0.846 and the “Partition coefficient P avg (std dev)” value was 7.02 (0.34).

These data come from US9315534B2, “Radiologic agents for monitoring alzheimer's disease progression and Evaluating a Response to Therapy and processes for the preparation of such agents” (BOARD OF REGENTS OF THE UNIVERSITY OF NEBRASKA, priority 2007, dated 2016).
